Among the data in ChEMBL document CHEMBL1147033, “Novel selective androgen receptor modulators: SAR studies on 6-bisalkylamino-2-quinolinones” (Bioorg Med Chem Lett, 2007) are EC50, IC50 and Ki values, retold here.

Bounds are passed on as bounds.

Test [1] concerns the target T1, Androgen receptor (Homo sapiens, UniProt P10275).
T1 sequence (P10275 whole entry): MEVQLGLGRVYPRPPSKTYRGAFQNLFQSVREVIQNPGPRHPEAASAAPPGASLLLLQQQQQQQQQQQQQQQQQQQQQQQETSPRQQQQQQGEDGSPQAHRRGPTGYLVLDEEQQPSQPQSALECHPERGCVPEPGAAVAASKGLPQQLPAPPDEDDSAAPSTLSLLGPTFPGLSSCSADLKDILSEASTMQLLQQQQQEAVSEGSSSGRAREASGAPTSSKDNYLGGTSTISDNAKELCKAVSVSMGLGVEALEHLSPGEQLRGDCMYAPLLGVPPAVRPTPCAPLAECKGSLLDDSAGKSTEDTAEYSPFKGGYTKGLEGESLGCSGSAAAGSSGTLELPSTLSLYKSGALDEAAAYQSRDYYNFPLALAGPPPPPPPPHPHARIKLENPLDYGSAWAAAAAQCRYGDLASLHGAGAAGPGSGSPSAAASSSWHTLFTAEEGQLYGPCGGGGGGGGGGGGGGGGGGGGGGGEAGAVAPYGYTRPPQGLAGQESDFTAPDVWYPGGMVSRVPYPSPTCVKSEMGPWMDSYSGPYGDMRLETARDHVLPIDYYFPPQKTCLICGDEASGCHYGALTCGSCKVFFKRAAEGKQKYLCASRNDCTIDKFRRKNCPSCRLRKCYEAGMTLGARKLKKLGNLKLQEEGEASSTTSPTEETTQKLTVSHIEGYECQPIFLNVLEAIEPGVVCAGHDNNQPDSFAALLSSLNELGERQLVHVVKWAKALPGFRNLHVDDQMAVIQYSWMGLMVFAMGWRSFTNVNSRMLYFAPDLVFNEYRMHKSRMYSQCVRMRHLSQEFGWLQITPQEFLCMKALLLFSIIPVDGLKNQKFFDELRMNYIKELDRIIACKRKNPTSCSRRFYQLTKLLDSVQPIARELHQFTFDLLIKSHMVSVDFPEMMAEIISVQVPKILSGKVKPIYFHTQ
Description: Agonist activity at human AR

Test [2] deals with T1, Androgen receptor. The source holds these as a separate data set.
Description: Antagonist activity at human AR
Test [3] has as its target T1, Androgen receptor. The source holds these as a separate data set.
Description: Binding affinity to human AR

Broadly, the EC50 is the concentration that produces a half-maximal response. A lower EC50 goes with greater potency. In general, IC50 refers to the point on the concentration scale where inhibition reaches its midpoint. A high value points to a need for much substance. Usually Ki stands for the equilibrium dissociation constant of an inhibitor or competing ligand from its target. Read a high Ki as a looser hold on the target. Compound `O=c1cc(C(F)(F)F)c2cc(N(Cc3ccccc3)CC(F)(F)F)ccc2[nH]1` returned an EC50 on Androgen receptor [1] of 27 nM. On Androgen receptor [2], the IC50 is greater than 10000 nM. For the same compound, at Androgen receptor [3], the Ki came out at 79 nM.
